Calls of active or inactive are those of the source. The rule behind the calls is not given here.
Experiments:
[1] = system: KB; test: Antiproliferative activity against human KB cells incubated for 72 hrs by SRB assay; assay type: functional, cell-based
[2] = system: A549; test: Antiproliferative activity against human A549 cells harbouring wild type EGFR incubated for 72 hrs by SRB assay; assay type: functional, cell-based; conditions: A549, 72 h
[3] = Antiproliferative activity against human KB-VIN10 cells incubated for 72 hrs by SRB assay; assay type: functional, cell-based; conditions: KB-VIN10, 72 h
[4] = system: MDA-MB-231; test: Antiproliferative activity against human MDA-MB-231 cells incubated for 72 hrs by SRB assay; assay type: functional, cell-based; conditions: MDA-MB-231, 72 h
[5] = system: MCF7; test: Antiproliferative activity against human MCF7 cells incubated for 72 hrs by SRB assay; assay type: functional, cell-based; conditions: MCF7, 72 h
[6] = system: NCI-H1975; test: Antiproliferative activity against human NCI-H1975 cells assessed as induction of NO production at 100 uM incubated for 150 mins by Griess reagent based assay; assay type: functional, cell-based
[7] = system: NCI-H1975; test: Antiproliferative activity against human NCI-H1975 cells incubated for 72 hrs by MTS assay; assay type: functional, cell-based; conditions: NCI-H1975, 72 h
[8] = system: NCI-H1975; test: cells; assay type: functional, cell-based; conditions: Homo sapiens, NCI-H1975, 72 h
[9] = molecular target: Epidermal growth factor receptor (Homo sapiens, UniProt P00533); test: biochemical; assay type: cell-based, Sf9
[10] = molecular target: Epidermal growth factor receptor (Homo sapiens, UniProt P00533, L858R/T790M); test: biochemical; assay type: cell-based, Sf9
[11] = molecular target: Epidermal growth factor receptor (Homo sapiens, UniProt P00533, C797S/L858R/T790M); test: biochemical; assay type: cell-based, Sf9
[12] = system: NCI-H1975; test: Antiproliferative activity against human NCI-H1975 cells assessed as induction of NO production at 25 uM preincubated for 1 hr with hemoglobin followed by compound addition and measured after 48 hrs by Griess reagent based assay; assay type: functional, cell-based

Sequence of Epidermal growth factor receptor (Homo sapiens, UniProt P00533) (P00533 whole entry): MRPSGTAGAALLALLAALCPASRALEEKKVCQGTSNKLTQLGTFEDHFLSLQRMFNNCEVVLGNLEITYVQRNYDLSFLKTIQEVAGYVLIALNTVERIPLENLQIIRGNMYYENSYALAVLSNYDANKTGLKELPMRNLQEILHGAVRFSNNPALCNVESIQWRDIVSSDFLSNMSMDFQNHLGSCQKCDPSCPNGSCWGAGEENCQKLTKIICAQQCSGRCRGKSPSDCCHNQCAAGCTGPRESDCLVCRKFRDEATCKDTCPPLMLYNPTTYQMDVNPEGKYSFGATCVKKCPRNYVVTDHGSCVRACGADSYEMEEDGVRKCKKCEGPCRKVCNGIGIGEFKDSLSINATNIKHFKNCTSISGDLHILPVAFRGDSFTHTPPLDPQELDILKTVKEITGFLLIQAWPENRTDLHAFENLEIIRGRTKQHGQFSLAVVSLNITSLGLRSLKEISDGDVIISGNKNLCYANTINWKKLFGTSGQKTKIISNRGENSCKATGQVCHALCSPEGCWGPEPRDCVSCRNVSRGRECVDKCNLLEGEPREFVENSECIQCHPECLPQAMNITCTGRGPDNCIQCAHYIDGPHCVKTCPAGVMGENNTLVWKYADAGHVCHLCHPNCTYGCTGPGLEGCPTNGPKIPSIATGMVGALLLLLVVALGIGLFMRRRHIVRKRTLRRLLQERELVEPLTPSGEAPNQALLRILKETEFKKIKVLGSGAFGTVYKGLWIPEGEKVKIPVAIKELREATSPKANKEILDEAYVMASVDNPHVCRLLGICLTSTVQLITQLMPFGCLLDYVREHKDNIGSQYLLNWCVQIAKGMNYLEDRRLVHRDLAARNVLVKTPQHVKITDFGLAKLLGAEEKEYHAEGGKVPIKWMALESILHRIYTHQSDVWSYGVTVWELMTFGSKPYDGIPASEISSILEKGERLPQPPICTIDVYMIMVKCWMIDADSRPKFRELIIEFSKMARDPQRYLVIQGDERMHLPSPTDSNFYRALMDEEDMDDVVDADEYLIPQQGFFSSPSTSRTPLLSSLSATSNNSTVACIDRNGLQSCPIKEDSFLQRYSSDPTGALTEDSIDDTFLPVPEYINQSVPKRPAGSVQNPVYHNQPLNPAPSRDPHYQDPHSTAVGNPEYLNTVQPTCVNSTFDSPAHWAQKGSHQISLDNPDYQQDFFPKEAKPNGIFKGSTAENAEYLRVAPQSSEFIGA
Sequence of Epidermal growth factor receptor (Homo sapiens, UniProt P00533, C797S/L858R/T790M) (P00533 25-1210 T790M/C797S/L858R limits assumed): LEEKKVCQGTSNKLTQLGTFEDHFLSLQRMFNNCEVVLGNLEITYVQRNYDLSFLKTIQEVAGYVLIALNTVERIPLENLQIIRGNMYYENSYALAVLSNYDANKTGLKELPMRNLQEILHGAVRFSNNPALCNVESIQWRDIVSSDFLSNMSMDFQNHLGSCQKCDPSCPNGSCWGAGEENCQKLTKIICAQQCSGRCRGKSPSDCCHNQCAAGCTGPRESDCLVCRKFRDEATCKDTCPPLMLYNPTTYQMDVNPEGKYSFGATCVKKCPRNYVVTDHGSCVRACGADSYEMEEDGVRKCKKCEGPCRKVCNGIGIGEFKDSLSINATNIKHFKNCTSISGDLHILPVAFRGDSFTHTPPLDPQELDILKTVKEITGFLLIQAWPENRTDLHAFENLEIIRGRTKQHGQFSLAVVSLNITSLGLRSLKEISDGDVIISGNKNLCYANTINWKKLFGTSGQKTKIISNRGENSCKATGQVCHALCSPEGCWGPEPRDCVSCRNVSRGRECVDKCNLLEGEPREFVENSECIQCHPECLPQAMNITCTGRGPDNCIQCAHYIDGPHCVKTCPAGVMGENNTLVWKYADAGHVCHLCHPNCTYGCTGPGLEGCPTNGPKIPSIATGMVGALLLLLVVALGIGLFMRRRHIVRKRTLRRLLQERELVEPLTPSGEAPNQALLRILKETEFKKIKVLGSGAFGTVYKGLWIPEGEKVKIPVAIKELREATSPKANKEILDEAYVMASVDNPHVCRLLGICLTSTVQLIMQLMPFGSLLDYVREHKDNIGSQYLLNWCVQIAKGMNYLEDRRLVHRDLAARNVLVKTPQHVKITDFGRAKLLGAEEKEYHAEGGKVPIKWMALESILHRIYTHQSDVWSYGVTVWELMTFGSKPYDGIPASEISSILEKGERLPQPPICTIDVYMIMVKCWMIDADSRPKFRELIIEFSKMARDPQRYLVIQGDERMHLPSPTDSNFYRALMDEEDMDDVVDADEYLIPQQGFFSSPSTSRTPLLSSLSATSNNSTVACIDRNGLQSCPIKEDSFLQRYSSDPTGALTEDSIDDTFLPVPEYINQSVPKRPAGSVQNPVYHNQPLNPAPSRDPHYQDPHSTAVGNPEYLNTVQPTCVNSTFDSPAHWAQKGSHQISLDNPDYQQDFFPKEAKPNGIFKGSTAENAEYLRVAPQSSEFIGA
Sequence of Epidermal growth factor receptor (Homo sapiens, UniProt P00533, L858R/T790M) (P00533 25-1210 T790M/L858R limits assumed): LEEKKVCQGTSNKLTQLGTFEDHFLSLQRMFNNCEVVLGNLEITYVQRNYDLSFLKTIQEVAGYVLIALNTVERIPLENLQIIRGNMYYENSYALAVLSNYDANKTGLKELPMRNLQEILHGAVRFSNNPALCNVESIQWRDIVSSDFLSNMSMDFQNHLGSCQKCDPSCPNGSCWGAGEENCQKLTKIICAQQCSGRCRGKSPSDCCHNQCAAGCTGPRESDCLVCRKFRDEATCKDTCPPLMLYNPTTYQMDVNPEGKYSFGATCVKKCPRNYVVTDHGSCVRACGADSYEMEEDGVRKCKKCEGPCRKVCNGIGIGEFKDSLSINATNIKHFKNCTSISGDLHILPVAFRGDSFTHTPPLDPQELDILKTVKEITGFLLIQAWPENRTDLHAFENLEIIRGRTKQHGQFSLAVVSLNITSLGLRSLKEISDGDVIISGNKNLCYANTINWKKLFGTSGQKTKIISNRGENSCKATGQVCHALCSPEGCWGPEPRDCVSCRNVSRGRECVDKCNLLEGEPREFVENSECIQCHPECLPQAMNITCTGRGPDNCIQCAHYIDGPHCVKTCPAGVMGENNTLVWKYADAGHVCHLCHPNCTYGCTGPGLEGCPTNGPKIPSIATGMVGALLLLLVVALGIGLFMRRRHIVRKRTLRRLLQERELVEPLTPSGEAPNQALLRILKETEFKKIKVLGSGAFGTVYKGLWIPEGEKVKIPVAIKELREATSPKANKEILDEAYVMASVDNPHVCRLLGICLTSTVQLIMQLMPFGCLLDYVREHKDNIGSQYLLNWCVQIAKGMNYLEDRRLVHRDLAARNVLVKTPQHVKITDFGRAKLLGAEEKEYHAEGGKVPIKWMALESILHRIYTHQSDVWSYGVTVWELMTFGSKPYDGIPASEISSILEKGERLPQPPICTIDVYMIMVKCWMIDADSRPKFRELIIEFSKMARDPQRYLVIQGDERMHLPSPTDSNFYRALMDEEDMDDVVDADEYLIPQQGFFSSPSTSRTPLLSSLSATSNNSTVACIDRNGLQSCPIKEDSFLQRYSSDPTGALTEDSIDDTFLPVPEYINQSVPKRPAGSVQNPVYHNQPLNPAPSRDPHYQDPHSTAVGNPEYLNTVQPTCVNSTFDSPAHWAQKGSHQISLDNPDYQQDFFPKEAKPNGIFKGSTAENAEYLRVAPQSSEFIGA

| Structure (SMILES) | IC50 [4] | IC50 [5] | IC50 [1] | IC50 [2] | IC50 [3] | Activity [6] | IC50 [7] | IC50 [8] | IC50 [9] | IC50 [10] | IC50 [11] | Activity [12] |
| --- | --- | --- | --- | --- | --- | --- | --- | --- | --- | --- | --- | --- |
| CC1(C)CC[C@]2(C(=O)O)CC[C@]3(C)C(=CC[C@@H]4[C@@]5(C)CC[C@H](O)C(C)(C)[C@@H]5CC[C@]43C)[C@@H]2C1 [OLEANOLIC_ACID] | > 10 µM | > 10 µM | > 10 µM | 6.4 µM | > 10 µM |  | > 10 µM | > 10 µM | > 20 µM | > 20 µM | > 20 µM |  |
| CC1(C)CC[C@]2(C(=O)OCCCCO[N+](=O)[O-])CC[C@]3(C)C(=CC[C@@H]4[C@@]5(C)CC[C@H](OC(=O)c6ccc([N+](=O)[O-])cc6)C(C)(C)[C@@H]5CC[C@]43C)[C@@H]2C1 |  |  |  |  |  |  | > 10 µM | > 10 µM | > 20 µM | > 20 µM | > 20 µM |  |
| CC1(C)CC[C@]2(C(=O)O)CC[C@]3(C)C(=CC[C@@H]4[C@@]5(C)CC[C@H](O)[C@@](C)(CO)[C@@H]5CC[C@]43C)[C@@H]2C1 [HEDERAGENIN] | > 10 µM | > 10 µM | > 10 µM | > 10 µM | > 10 µM |  | > 10 µM | > 10 µM | > 20 µM | > 20 µM | > 20 µM |  |
| CC1(C)CC[C@]2(C(=O)OCCCCO[N+](=O)[O-])CC[C@]3(C)C(=CC[C@@H]4[C@@]5(C)CC[C@H](OCc6ccccc6)C(C)(C)[C@@H]5CC[C@]43C)[C@@H]2C1 | > 10 µM | > 10 µM | > 10 µM | > 10 µM | > 10 µM |  | > 10 µM | > 10 µM | > 20 µM | > 20 µM | > 20 µM |  |
| CC(=O)OC[C@@]1(C)[C@@H]2CC[C@]3(C)[C@H](CC=C4[C@@H]5CC(C)(C)CC[C@]5(C(=O)OCCCCO[N+](=O)[O-])CC[C@]43C)[C@@]2(C)CC[C@@H]1OC(C)=O | 5.2 µM | 5 µM | 5.1 µM | 4.6 µM | 4.8 µM | Active | 8.1 µM | 7.6 µM | 0.06 µM | > 20 µM | 0.01 µM | inactive |
| CC1(C)CC[C@]2(C(=O)OCCCCO[N+](=O)[O-])CC[C@]3(C)C(=CC[C@@H]4[C@@]5(C)CC[C@H](OC(=O)c6ccccc6)C(C)(C)[C@@H]5CC[C@]43C)[C@@H]2C1 | > 10 µM | > 10 µM | > 10 µM | > 10 µM | > 10 µM |  | > 10 µM | > 10 µM | > 20 µM | > 20 µM | > 20 µM |  |
| CC(=O)O[C@H]1CC[C@]2(C)[C@H]3CC=C4[C@@H]5CC(C)(C)CC[C@]5(C(=O)OCCO[N+](=O)[O-])CC[C@@]4(C)[C@]3(C)CC[C@H]2C1(C)C | 7.9 µM | 6.8 µM | 4.9 µM | 6.3 µM | > 10 µM | Active |  |  |  |  |  |  |
| COc1cc(N2CCC(N3CCN(C)CC3)CC2)ccc1Nc1ncc(Cl)c(Nc2ccccc2P(C)(C)=O)n1 [BRIGATINIB] |  |  |  |  |  |  | 0.62 µM | 0.64 µM |  |  |  |  |
| CC1(C)CC[C@]2(C(=O)OCCCCO[N+](=O)[O-])CC[C@]3(C)C(=CC[C@@H]4[C@@]5(C)CC[C@H](O)[C@@](C)(CO)[C@@H]5CC[C@]43C)[C@@H]2C1 | > 10 µM | 8 µM | > 10 µM | 9.3 µM | > 10 µM | Active | > 10 µM | > 10 µM | 0.19 µM | > 20 µM | 0.04 µM |  |
| C=CC(=O)O[C@H]1CC[C@]2(C)[C@H]3CC=C4[C@@H]5CC(C)(C)CC[C@]5(C(=O)OCCCCO[N+](=O)[O-])CC[C@@]4(C)[C@]3(C)CC[C@H]2C1(C)C | > 10 µM | > 10 µM | > 10 µM | > 10 µM | > 10 µM |  | > 10 µM | > 10 µM | > 20 µM | > 20 µM | > 20 µM |  |
| CC1(C)CC[C@]2(C(=O)OCCO[N+](=O)[O-])CC[C@]3(C)C(=CC[C@@H]4[C@@]5(C)CC[C@H](O)C(C)(C)[C@@H]5CC[C@]43C)[C@@H]2C1 | 5.5 µM | 5.5 µM | 5 µM | 4.7 µM | 6.4 µM | Active | > 10 µM | > 10 µM | 0.11 µM | > 20 µM | 0.03 µM |  |
| CC(=O)O[C@H]1CC[C@]2(C)[C@H]3CC=C4[C@@H]5CC(C)(C)CC[C@]5(C(=O)OCCCCO[N+](=O)[O-])CC[C@@]4(C)[C@]3(C)CC[C@H]2C1(C)C | 5.4 µM | 5.2 µM | 5.3 µM | 4.8 µM | 5.1 µM | Active | > 10 µM | > 10 µM | 0.1 µM | > 20 µM | 0.02 µM | inactive |
| CC1(C)CC[C@]2(C(=O)OCCCCO[N+](=O)[O-])CC[C@]3(C)C(=CC[C@@H]4[C@@]5(C)CC[C@H](OC(=O)/C=C/c6ccc7c(c6)OCO7)C(C)(C)[C@@H]5CC[C@]43C)[C@@H]2C1 |  |  |  |  |  |  | > 10 µM | > 10 µM | > 20 µM | > 20 µM | > 20 µM |  |

Continued, in another order:

| IC50 [4] | IC50 [5] | Structure (SMILES) | IC50 [1] | IC50 [2] | IC50 [3] | Activity [6] | IC50 [7] | IC50 [8] | IC50 [9] | IC50 [10] | IC50 [11] | Activity [12] |
| --- | --- | --- | --- | --- | --- | --- | --- | --- | --- | --- | --- | --- |
| > 10 µM | > 10 µM | CC1(C)CC[C@]2(C(=O)OCCCCO[N+](=O)[O-])CC[C@]3(C)C(=CC[C@@H]4[C@@]5(C)CC[C@H](O)C(C)(C)[C@@H]5CC[C@]43C)[C@@H]2C1 | > 10 µM | 9.2 µM | > 10 µM |  |  |  |  |  |  |  |
| 7.3 µM | > 10 µM | CC(=O)OC[C@@]1(C)[C@@H]2CC[C@]3(C)[C@H](CC=C4[C@@H]5CC(C)(C)CC[C@]5(C(=O)OCCO[N+](=O)[O-])CC[C@]43C)[C@@]2(C)CC[C@@H]1OC(C)=O | 7 µM | 5.3 µM | > 40 µM | Active |  |  |  |  |  |  |
| 5.3 µM | 6.4 µM | CC(=O)O[C@H]1CC[C@]2(C)[C@H]3CC=C4[C@@H]5CC(C)(C)CC[C@]5(C(=O)OCCCCCCO[N+](=O)[O-])CC[C@@]4(C)[C@]3(C)CC[C@H]2C1(C)C | 5.1 µM | 5 µM | 7.6 µM | Active |  |  |  |  |  |  |
| > 10 µM | > 10 µM | CC(=O)OC[C@@]1(C)[C@@H]2CC[C@]3(C)[C@H](CC=C4[C@@H]5CC(C)(C)CC[C@]5(C(=O)O)CC[C@]43C)[C@@]2(C)CC[C@@H]1OC(C)=O |  |  | 8.5 µM |  |  |  |  |  |  |  |
|  | > 10 µM | CC(=O)O[C@H]1C(=O)[C@@]2(C)[C@H]([C@H](OC(=O)c3ccccc3)[C@]3(O)C[C@H](OC(=O)[C@H](O)[C@@H](NC(=O)c4ccccc4)c4ccccc4)C(C)=C1C3(C)C)[C@]1(OC(C)=O)CO[C@@H]1C[C@@H]2O [PACLITAXEL] |  |  | > 10 µM |  |  |  |  |  |  |  |
| 9.2 µM | > 10 µM | CC1(C)CC[C@]2(C(=O)OCCO[N+](=O)[O-])CC[C@]3(C)C(=CC[C@@H]4[C@@]5(C)CC[C@H](O)[C@@](C)(CO)[C@@H]5CC[C@]43C)[C@@H]2C1 | 9.5 µM | > 10 µM | > 10 µM | Active |  |  |  |  |  |  |
| > 10 µM | > 10 µM | CC1(C)CC[C@]2(C(=O)OCCCCCCO[N+](=O)[O-])CC[C@]3(C)C(=CC[C@@H]4[C@@]5(C)CC[C@H](O)[C@@](C)(CO)[C@@H]5CC[C@]43C)[C@@H]2C1 | > 10 µM | > 10 µM | > 40 µM |  |  |  |  |  |  |  |
| 5.1 µM | 4.6 µM | CC(=O)OC[C@@]1(C)[C@@H]2CC[C@]3(C)[C@H](CC=C4[C@@H]5CC(C)(C)CC[C@]5(C(=O)OCCCCCCO[N+](=O)[O-])CC[C@]43C)[C@@]2(C)CC[C@@H]1OC(C)=O | 4.8 µM | 4.7 µM | 4.9 µM | Active |  |  |  |  |  |  |
| > 10 µM | > 10 µM | CC1(C)CC[C@]2(C(=O)OCCCCCCO[N+](=O)[O-])CC[C@]3(C)C(=CC[C@@H]4[C@@]5(C)CC[C@H](O)C(C)(C)[C@@H]5CC[C@]43C)[C@@H]2C1 | > 10 µM | > 10 µM | > 10 µM |  |  |  |  |  |  |  |
| > 10 µM | > 10 µM | CC(=O)O[C@H]1CC[C@]2(C)[C@H]3CC=C4[C@@H]5CC(C)(C)CC[C@]5(C(=O)O)CC[C@@]4(C)[C@]3(C)CC[C@H]2C1(C)C [ACETYL OLEANOLIC ACID] | 7.6 µM | 5.8 µM | 7.6 µM |  |  |  |  |  |  |  |

Source: ChEMBL document CHEMBL4414650, “Discovery of an Oleanolic Acid/Hederagenin-Nitric Oxide Donor Hybrid as an EGFR Tyrosine Kinase Inhibitor for Non-Small-Cell Lung Cancer” (J Nat Prod, 2019)
